Measurements taken from ChEMBL document CHEMBL5620431, “2,4-Diaryl-pyrimido[1,2-a]benzimidazole derivatives as novel anticancer agents endowed with potent anti-leukemia activity: Synthesis, biological evaluation and kinase profiling” (Eur J Med Chem, 2023).

What was measured:
[1] = molecular target: T1, Receptor-type tyrosine-protein kinase FLT3 (Homo sapiens, UniProt P36888); experiment: Inhibition of FLT3 (unknown origin)
T1 sequence (P36888 whole entry): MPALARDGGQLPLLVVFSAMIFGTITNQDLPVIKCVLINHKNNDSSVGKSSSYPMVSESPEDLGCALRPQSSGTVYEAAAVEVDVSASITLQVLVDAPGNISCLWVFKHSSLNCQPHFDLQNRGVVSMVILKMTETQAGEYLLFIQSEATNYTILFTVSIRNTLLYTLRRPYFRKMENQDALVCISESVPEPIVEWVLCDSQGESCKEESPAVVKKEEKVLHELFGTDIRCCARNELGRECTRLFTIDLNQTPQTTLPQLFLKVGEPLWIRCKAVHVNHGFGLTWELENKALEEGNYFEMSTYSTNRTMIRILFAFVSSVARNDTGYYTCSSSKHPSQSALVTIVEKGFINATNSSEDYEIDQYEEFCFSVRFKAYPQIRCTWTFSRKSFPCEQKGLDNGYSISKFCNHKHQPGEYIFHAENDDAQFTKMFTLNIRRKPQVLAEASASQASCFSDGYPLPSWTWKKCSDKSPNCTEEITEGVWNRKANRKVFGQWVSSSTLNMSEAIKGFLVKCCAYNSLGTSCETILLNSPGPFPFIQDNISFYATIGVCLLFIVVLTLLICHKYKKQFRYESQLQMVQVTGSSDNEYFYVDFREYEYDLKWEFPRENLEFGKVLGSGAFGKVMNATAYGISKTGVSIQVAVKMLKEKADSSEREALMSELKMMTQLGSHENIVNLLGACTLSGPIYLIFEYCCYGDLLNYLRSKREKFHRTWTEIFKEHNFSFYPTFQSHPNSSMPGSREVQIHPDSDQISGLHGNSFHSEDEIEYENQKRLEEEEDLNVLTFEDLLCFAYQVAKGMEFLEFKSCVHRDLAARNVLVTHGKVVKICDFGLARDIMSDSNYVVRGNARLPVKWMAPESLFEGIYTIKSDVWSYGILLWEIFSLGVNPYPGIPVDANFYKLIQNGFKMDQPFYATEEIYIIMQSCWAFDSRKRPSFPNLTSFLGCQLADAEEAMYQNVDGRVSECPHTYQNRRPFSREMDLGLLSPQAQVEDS

CCRF-CEM = experiment: Antiproliferative activity against human CCRF-CEM cells assessed as cell growth inhibition incubated for 48 hrs by MTT assay; assay type: functional
BaF3 = experiment: Antiproliferative activity against TEL-BMX transformed mouse BaF3 cells assessed as inhibition of cell proliferation

Cc1oncc1C(=O)Nc1ccc2[nH]c(-c3cc(-n4ccnc4C)cc(C(F)(F)F)c3)nc2c1 was tested, and the IC50 [1] was 495 nM.
In the case of CCOC(=O)c1cnc2c(-c3nc4ccccc4s3)c(NC)nn2c1O, the GI50 (CCRF-CEM) is reported as 16300 nM.
For Cc1oncc1C(=O)Nc1ccc2[nH]c(-c3cc(-n4cncc4C)cc(C(F)(F)F)c3)nc2c1, the IC50 [1] was 495 nM.
In the case of Cc1oncc1C(=O)Nc1ccc2[nH]c(-c3cnn(-c4ccccc4)c3C(F)(F)F)nc2c1, the IC50 [1] is reported as 495 nM.
For Cc1oncc1C(=O)Nc1ccc2[nH]c(-c3cc(N4CCOCC4)cc(C(F)(F)F)c3)nc2c1, the IC50 [1] was 495 nM.
Work on C=CC(=O)Nc1cc(-n2c(=O)ccc3cnc4ccc(-c5ccc(NS(C)(=O)=O)cc5)cc4c32)ccc1C yielded an IC50 (BaF3) of 25 nM.
With Cc1cn(-c2cc(-c3nc4cc(NC(=O)c5cnoc5C)ccc4[nH]3)cc(C(F)(F)F)c2)cn1 the IC50 [1] was 495 nM.
